Results published in ChEMBL document CHEMBL3784926, “Concise total synthesis of water soluble metatacarboline A, C, D, E and F and its anticancer activity” (Eur J Med Chem, 2016).
Converted amounts (≈) assume the structure as drawn. The source made the active and inactive calls. The rule behind the calls is not given here.

Experiments:
[1] = Solubility of the compound in water at 0.01 g after 5 mins; assay type: physicochemical
C6 [2] = test: Antiproliferative activity against rat C6 cells assessed as cell viability after 24 hrs by MTT assay; assay type: functional, cell-based; conditions: for IC50: C6, 24 h
C6 [3] = test: Cell cycle arrest in rat C6 cells assessed as accumulation at G2/M phase at 200 uM after 24 hrs by propidium iodide staining based flow cytometric analysis (reference value: 20.2%); assay type: functional
C6 [4] = test: Antiproliferative activity against rat C6 cells assessed as inhibition of colony forming ability at 200 uM after 7 days by methylene blue staining; values are per cent of control; conditions: C6, 168 h
C6 [5] = test: Antiproliferative activity against rat C6 cells assessed as inhibition of colony forming ability at 400 uM after 7 days by methylene blue staining; values are per cent of control; conditions: C6, 168 h
C6 [6] = test: Cell cycle arrest in rat C6 cells assessed as accumulation at G2/M phase at 400 uM after 24 hrs by propidium iodide staining based flow cytometric analysis (reference value: 20.2%); assay type: functional
C6 [7] = test: Cell cycle arrest in rat C6 cells assessed as accumulation at G2/M phase at 120 uM after 24 hrs by propidium iodide staining based flow cytometric analysis (reference value: 20.2%); assay type: functional
C6 [8] = test: Cell cycle arrest in rat C6 cells assessed as accumulation at G2/M phase at 40 uM after 24 hrs by propidium iodide staining based flow cytometric analysis (reference value: 20.2%); assay type: functional
C6 [9] = test: Antiproliferative activity against rat C6 cells assessed as inhibition of colony forming ability at 600 uM after 7 days by methylene blue staining; values are per cent of control; conditions: C6, 168 h
C6 [10] = test: Induction of apoptosis in rat C6 cells assessed as upregulation of p53 expression at 100 to 600 uM after 24 hrs by Western blot analysis; assay type: functional, cell-based
C6 [11] = test: Antiproliferative activity against rat C6 cells assessed as inhibition of colony forming ability at 800 uM after 7 days by methylene blue staining; values are per cent of control; conditions: C6, 168 h
C6 [12] = test: Cell cycle arrest in rat C6 cells assessed as accumulation at sub G0/G1 phase at 200 uM after 24 hrs by propidium iodide staining based flow cytometric analysis (reference value: 0.6 %); assay type: functional
C6 [13] = test: Induction of apoptosis in rat C6 cells assessed as DNA fragmentation at 300 uM after 24 hrs by TUNEL assay relative to control; assay type: functional, cell-based
C6 [14] = test: Induction of apoptosis in rat C6 cells assessed as decrease in pro-caspase 8 expression at 100 to 600 uM after 24 hrs by Western blot analysis; assay type: functional, cell-based
C6 [15] = test: Induction of apoptosis in rat C6 cells assessed as cleaved caspase 3 at 100 to 600 uM after 24 hrs by Western blot analysis; assay type: functional, cell-based
C6 [16] = test: Induction of apoptosis in rat C6 cells assessed as decrease in Bcl2 expression at 100 to 600 uM after 24 hrs by Western blot analysis; assay type: functional, cell-based
C6 [17] = test: Induction of apoptosis in rat C6 cells assessed as PARP cleavage at 100 to 600 uM after 24 hrs by Western blot analysis; assay type: functional, cell-based
C6 [18] = test: Cell cycle arrest in rat C6 cells assessed as accumulation at sub G0/G1 phase at 100 uM after 24 hrs by propidium iodide staining based flow cytometric analysis (reference value: 0.6 %); assay type: functional
C6 [19] = test: Antiproliferative activity against rat C6 cells assessed as inhibition of colony forming ability at 120 uM after 7 days by methylene blue staining; values are per cent of control; conditions: C6, 168 h
C6 [20] = test: Induction of apoptosis in rat C6 cells assessed as decrease in Bclxl expression at 100 to 600 uM after 24 hrs by Western blot analysis; assay type: functional, cell-based
C6 [21] = test: Antiproliferative activity against rat C6 cells assessed as inhibition of colony forming ability at 40 uM after 7 days by methylene blue staining; values are per cent of control; conditions: C6, 168 h
C6 [22] = test: Cell cycle arrest in rat C6 cells assessed as accumulation at sub G0/G1 phase at 400 uM after 24 hrs by propidium iodide staining based flow cytometric analysis (reference value: 0.6 %); assay type: functional
[23] = Solubility of the compound in water after 5 mins; assay type: physicochemical

For C[C@H](NC(=O)c1cc2c([nH]c3ccccc32)c(CCC(=O)N2CCC[C@H]2C(=O)O)n1)C(=O)O, the solubility [1] was “soluble” and the Activity (C6 [2]) was “Dose-dependent effect”.

With CC(C)[C@H](NC(=O)c1cc2c([nH]c3ccccc32)c(CCC(=O)N2CCC[C@H]2C(=O)O)n1)C(=O)O the solubility [1] was “soluble”, the Activity (C6 [3]) was 18.3% and the colony formation (% of control) at 200 µM (C6 [4]) was 55%. The colony formation (% of control) at 400 µM (C6 [5]) was 35%, the Activity (C6 [6]) was 23.9% and the Activity (C6 [2]) was “Dose-dependent effect”. It also gave an IC50 (C6 [2]) of 250 µM, an Activity (C6 [7]) of 22.8% and an Activity (C6 [8]) of 24.4%. It also gave a colony formation (% of control) at 600 µM (C6 [9]) of 15%.

For O=C(N[C@@H](CO)C(=O)O)c1cc2c([nH]c3ccccc32)c(CCC(=O)N2CCC[C@H]2C(=O)O)n1, the solubility [1] was “soluble” and the Activity (C6 [2]) was “Dose-dependent effect”.

With C[C@H](O)[C@H](NC(=O)c1cc2c([nH]c3ccccc32)c(CCC(=O)N2CCC[C@H]2C(=O)O)n1)C(=O)O the Activity (C6 [10]) was “Active”, the solubility [1] was “soluble” and the colony formation (% of control) at 800 µM (C6 [11]) was 5%. The Activity (C6 [12]) was 43.7%, the colony formation (% of control) at 200 µM (C6 [4]) was 45% and the Activity (C6 [13]) was “Active”. The Activity (C6 [14]) was “Active”, the colony formation (% of control) at 400 µM (C6 [5]) was 25% and the Activity (C6 [15]) was “Active”. For the same molecule, the Activity (C6 [16]) was “Active”, the Activity (C6 [17]) was “Active” and the Activity (C6 [18]) was 4.7%. For the same molecule, the colony formation (% of control) at 120 µM (C6 [19]) was 75%, the Activity (C6 [2]) was “Dose-dependent effect” and the IC50 (C6 [2]) was 150 µM. The Activity (C6 [20]) was “Active”, the colony formation (% of control) at 40 µM (C6 [21]) was 85% and the Activity (C6 [22]) was 95.1%.

With O=C(O)c1cc2c([nH]c3ccccc32)c(CCC(=O)N2CCC[C@H]2C(=O)O)n1 the solubility at 5 min [23] was 10000 µg/mL (≈ 26.2 mM) and the Activity (C6 [2]) was “Dose-dependent effect”.
